Experimental data reported in patent US20260374766A1, “METHODS FOR TREATING CANCER” (Antares Therapeutics, Inc., priority 2022, published 2026).
Where two headings read alike, the source gives them in different places.

Experiments:
p53 Y220C = p53 Y220C (Homo sapiens, UniProt P04637, Y220C); assay: Luciferase Reporter Assay (Luc), p53 response element, NClH1299 cells with inducible p53 Y220C; format: cell-based; conditions: luciferase reporter, NClH1299 inducible p53 Y220C, 6 hour; for AC50: read-out: Luc P53 Y220C AC50
In short: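 H1299 cells induced with 0.5 ug/mL doxycycline for 24 hours, then exposed to compound for 6 hours. p53 response-element luciferase read by One-Glo luminescence after 5 min shaking at room temperature.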

H1299 p53 R273H = assay: Cell Proliferation Assay (CellTiter-Glo, CTG), H1299 p53 R273H (NClH1299-inducible p53 R273H); format: cell-based; conditions: Homo sapiens, NCI-H1299, 120 h, CellTiter-Glo, 5 days
In short: (§1)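 NClH1299 lines stably transduced with Tet-inducible p53 Y220C or R273H, plus NUGC3, were treated with compound for 5 days at 250-500 cells/well. IC50 derived from CellTiter-Glo luminescent signal after 10 min room-temperature incubation.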

[1] = target: T1, p53 Y220C mutant protein (amino acid residues 94-293) (Homo sapiens, UniProt P04637, Y220C); assay: Surface Plasmon Resonance (SPR) assay, Kd_kinetic; format: binding; conditions: SPR, p53 Y220C, read-out: SPR P53 Y220C KD kinetic
T1 construct: p53 Y220C mutant protein (amino acid residues 94-293)
In short: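 Biacore 8K SPR; 16 or 20 °C; Tris 50 mM pH 7.5, NaCl 100 mM, DTT 1 mM, Brij35 0.01%, Tween-20 0.05%, DMSO 1%. Kd_kinetic by 1:1 fit.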

[2] = target: T1, p53 Y220C mutant protein (amino acid residues 94-293); assay: Thermal Shift Assay (TSA), dTM; format: binding; conditions: for ΔTm at 10 µM: 10 uM compound; for ΔTm at 100 µM: 100 uM compound, read-out: TSA P53 Y220C dTM (100 uM)
In short: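 5 μM p53 Y220C (residues 94-293) incubated 3 h at 20 °C with 10 μM or 100 μM compound in 20 mM HEPES pH 7.4, 100 mM NaCl, 0.01% Pluronic F-127, 1% DMSO plus Sypro Orange. Melt from 30 to 50 °C at 0.03 °C/s; TM from Boltzmann two-state fit.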

H1299 p53 Y220C = assay: Cell Proliferation Assay (CellTiter-Glo, CTG), H1299 p53 Y220C (NClH1299-inducible p53 Y220C); format: cell-based; conditions: Homo sapiens, NCI-H1299, 120 h, CellTiter-Glo, 5 days
In short: as §1

NUGC3 p53 Y220C = assay: Cell Proliferation Assay (CellTiter-Glo, CTG), NUGC3 p53 Y220C; format: cell-based; conditions: Homo sapiens, NUGC-3, 120 h, CellTiter-Glo, 5 days
In short: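 Tet-One inducible p53 Y220C or R273H constructs were stably introduced into NCI-H1299 by lentiviral transduction; NUGC3 was used as is. Cells (250-500 per well) were exposed to compound for 5 days, then CellTiter-Glo was added for 10 min at room temperature and IC50 was calculated from luminescence.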

[3] = 10 uM tool compound as positive control
[4] = thermal shift, read-out: TSA P53 Y220C dTM (10 uM)
[5] = NClH1299-inducible p53 R273H cells
[6] = p53 Y220C, read-out: TSA P53 Y220C dTM
[7] = NClH1299-inducible p53 Y220C cells

Row | SMILES | Emax (p53 Y220C; [3]) [%] | AC50 (p53 Y220C) [nM] | IC50 (H1299 p53 R273H; H1299 p53 R273H) [µM] | Kd ([1]; kinetic KD) [nM] | ΔTm at 10 µM [2, 4] [°C] | IC50 (H1299 p53 Y220C; H1299 p53 Y220C) [nM] | IC50 (NUGC3 p53 Y220C; NUGC3 p53 Y220C) [nM] | ΔTm at 100 µM ([2]; thermal shift) [°C] | AC50 (p53 Y220C; AC50) [nM] | Emax (p53 Y220C; Emax) [%] | IC50 (H1299 p53 R273H; [5]) [µM] | Kd [1] [nM] | ΔTm at 10 µM [2, 6] [°C] | IC50 (H1299 p53 Y220C; [7]) [nM] | IC50 (NUGC3 p53 Y220C; NUGC3 cells) [nM]
1 | CNC(=O)c1ccc(OC)c(NCC#Cc2cc3c(N[C@@H]4CCN(C)C[C@@H]4F)nccn3c2SC(F)(F)F)n1 [Example 207] | > 90 | < 750 | ≥ 10 | < 10 | ≥ 10 | < 750 | < 750 |  |  |  |  |  |  |  | 
2 | CNC(=O)N1CCC(Nc2cccn3c(CC(F)(F)F)c(C#CCNc4ccc(S(C)(=O)=O)cc4OC)nc23)CC1 [Example 117, 4-[(2-{3-[(4-methanesulfonyl-2-methoxyphenyl)amino]prop-1-yn-1-yl}-3-(2,2,2-trifluoroethyl)imidazo[1,2-a]pyridin-8-yl)amino]-N-methylpiperidine-1-carboxamide] | 70 to 80 | > 3000 | ≥ 10 | 10 to 100 |  | > 3000 | > 3000 | 5 to 10 |  |  |  |  |  |  | 
3 | COC[C@@H](O)CN1CCC(Nc2cccn3c(CC(F)(F)F)c(C#CCNc4ccc(S(C)(=O)=O)cc4OC)nc23)CC1 [Example 12, (2S)-1-{4-[(2-{3-[(4-methanesulfonyl-2-methoxyphenyl)amino]prop-1-yn-1-yl}-3-(2,2,2-trifluoroethyl)imidazo[1,2-a]pyridin-8-yl)amino]piperidin-1-yl}-3-methoxypropan-2-ol] | 70 to 80 | 1500 to 3000 | ≥ 10 | 10 to 100 |  | 1500 to 3000 | 750 to 1500 | ≥ 10 |  |  |  |  |  |  | 
4 | CNc1cc(NC2CCN(C)CC2)c2nc(C#CCNc3ccc(S(C)(=O)=O)cc3OC)c(CC(F)(F)F)n2c1 [Example 33, 2-{3-[(4-methanesulfonyl-2-methoxyphenyl)amino]prop-1-yn-1-yl}-N6-methyl-N8-(1-methylpiperidin-4-yl)-3-(2,2,2-trifluoroethyl) imidazo[1,2-a]pyridine-6,8-diamine] | < 70 | > 3000 | ≥ 10 | 10 to 100 |  | > 3000 | > 3000 | 1 to 5 |  |  |  |  |  |  | 
5 | CNC(=O)c1ccc(NCC#Cc2nc3c(N[C@@H]4C[C@H]5CC[C@@H]([C@@H]4F)N5C)cccn3c2SC(F)(F)F)c(OC)c1 [Example 122] | 80 to 90 | < 750 | 5 to 8 | < 10 | ≥ 10 | < 750 | < 750 | ≥ 10 |  |  |  |  |  |  | 
6 | COc1cc(S(C)(=O)=O)ccc1NCC#Cc1nc2c(NC3CCN(C)CC3)cc(N)cn2c1CC(F)(F)F [Example 32, 2-{3-[(4-methanesulfonyl-2-methoxyphenyl)amino]prop-1-yn-1-yl}-N8-(1-methylpiperidin-4-yl)-3-(2,2,2-trifluoroethyl) imidazo[1,2-a]pyridine-6,8-diamine] | < 70 | > 3000 | ≥ 10 | < 10 | 1 to 5 | > 3000 | > 3000 | 1 to 5 |  |  |  |  |  |  | 
7 | CCNC(=O)c1ccc(OC)c(NCC#Cc2nc3c(N[C@@H]4CCN(C)C[C@@H]4F)nccn3c2SC(F)(F)F)c1 [Example 309] |  |  |  |  |  |  |  |  | < 750 | 70 to 80 | < 5 | < 10 | ≥ 10 | < 750 | < 750
8 | COc1ccc(S(C)(=O)=O)cc1NCC#Cc1nc2c(N[C@@H]3CCN(C)C[C@@H]3F)cccn2c1SC(F)(F)F [Example 84, (3S,4R)-3-fluoro-N-(2-{3-[(5-methanesulfonyl-2-methoxyphenyl)amino]prop-1-yn-1-yl}-3-[(trifluoromethyl)sulfanyl]imidazo[1,2-a]pyridin-8-yl)-1-methylpiperidin-4-amine] | 80 to 90 | 1500 to 3000 | ≥ 10 | < 10 | 5 to 10 | 1500 to 3000 | 1500 to 3000 | ≥ 10 |  |  |  |  |  |  | 
9 | COc1cc(P(C)(C)=O)ccc1NCC#Cc1cc2c(N[C@@H]3CCN(C)C[C@@H]3F)cccn2c1SC(F)F [Example 349] |  |  |  |  |  |  |  |  | < 750 | 80 to 90 | ≥ 10 | < 10 | ≥ 10 | < 750 | < 750
10 | CNC(=O)c1ccc(OC)c(NCC#Cc2nc3c(N[C@@H]4CCNC[C@@H]4F)cccn3c2SC(F)F)n1 [Example 193] | 70 to 80 | < 750 | 8 to 10 | 10 to 100 | ≥ 10 | < 750 | < 750 | ≥ 10 |  |  |  |  |  |  | 
11 | COc1cc2c(cc1NCC#Cc1nc3c(N[C@@H]4CCN(C)C[C@@H]4F)cccn3c1SC(F)(F)F)CNC2=O [Example 96, 5-{[3-(8-{[(3S,4R)-3-fluoro-1-methylpiperidin-4-yl]amino}-3-[(trifluoromethyl)sulfanyl]imidazo[1,2-a]pyridin-2-yl)prop-2-yn-1-yl]amino}-6-methoxy-2,3-dihydroisoindol-1-one] | 80 to 90 | < 750 | 5 to 8 | < 10 | ≥ 10 | < 750 | < 750 | ≥ 10 |  |  |  |  |  |  | 
12 | CCNC(=O)c1ccc(NCC#Cc2cc3c(N[C@@H]4CCN(C)C[C@@H]4F)nccn3c2SC(F)(F)F)c(OC)c1 [Example 306] |  |  |  |  |  |  |  |  | < 750 | > 90 | 5 to 8 | < 10 | ≥ 10 | < 750 | < 750
13 | CNC(=O)c1ccc(NCC#Cc2nc3c(N[C@@H]4CCc5nncn5C4)cccn3c2SC(F)(F)F)c(OC)c1 [Example 192] | < 70 | > 3000 | ≥ 10 | < 10 | ≥ 10 | > 3000 | > 3000 | ≥ 10 |  |  |  |  |  |  | 
14 | COc1cc(S(C)(=O)=O)ccc1NCC#Cc1nc2c(NC3CCN(CCS(C)(=O)=O)CC3)cccn2c1CC(F)(F)F [Example 5, N-(2-{3-[(4-methanesulfonyl-2-methoxyphenyl)amino]prop-1-yn-1-yl}-3-(2,2,2-trifluoroethyl)imidazo[1,2-a]pyridin-8-yl)-1-(2-methanesulfonylethyl) piperidin-4-amine] | 80 to 90 | > 3000 | ≥ 10 | 10 to 100 | 5 to 10 | > 3000 | 1500 to 3000 | 5 to 10 |  |  |  |  |  |  | 
15 | COc1cc(S(N)(=O)=O)ccc1NCC#Cc1nc2c(N[C@@H]3CCN(C)C[C@@H]3F)cccn2c1CC(F)(F)F [Example 63, 4-{[3-(8-{[(3S,4R)-3-fluoro-1-methylpiperidin-4-yl]amino}-3-(2,2,2-trifluoroethyl)imidazo[1,2-a]pyridin-2-yl)prop-2-yn-1-yl]amino}-3-methoxybenzenesulfonamide] | 70 to 80 | 1500 to 3000 | ≥ 10 | 10 to 100 |  | 750 to 1500 | 750 to 1500 | ≥ 10 |  |  |  |  |  |  | 
16 | CN1CC[C@@H](Nc2cccn3c(CC(F)(F)F)c(C#CCNc4ccc(S(C)(=O)=O)cc4)nc23)[C@@H](F)C1 [Example 76, (3S,4R)-3-fluoro-N-(2-{3-[(4-methanesulfonylphenyl)amino]prop-1-yn-1-yl}-3-(2,2,2-trifluoroethyl)imidazo[1,2-a]pyridin-8-yl)-1-methylpiperidin-4-amine] | 70 to 80 | 1500 to 3000 | ≥ 10 | < 10 |  | 750 to 1500 | 750 to 1500 | 5 to 10 |  |  |  |  |  |  | 
17 | CNC(=O)c1ccc(OC)c(NCC#Cc2nc3c(N[C@@H]4CNC[C@@H]4F)cccn3c2SC(F)(F)F)n1 [Example 172] | 70 to 80 | < 750 | 5 to 8 | < 10 | ≥ 10 | < 750 | < 750 | ≥ 10 |  |  |  |  |  |  | 
